Biological target: T1, human V1a receptor (Homo sapiens, UniProt P37288)
T1 construct: expressed in transfected cells; host or cells: HEK293 cells, transiently transfected; cell membranes
Assay: human V1a receptor binding (3H-Vasopressin SPA, HEK293 membranes)
Conditions: displacement of 4 nM 3H-Vasopressin, membranes of HEK293 cells transiently transfected with human V1a receptor; Ki from IC50 by Cheng-Prussoff
Description: The human V1a receptor was cloned by RT-PCR from total human liver RNA. The coding sequence was subcloned in an expression vector after sequencing to confirm the identity of the amplified sequence. […] Cell membranes were prepared from HEK293 cells transiently transfected with the expression vector and grown in 20 liter fermenters with the following protocol.
50 g cells are resuspended in 30 ml freshly prepared ice cold Lysis buffer (50 mM HEPES, 1 mM EDTA, 10 mM MgCl2 adjusted to pH=7.4+complete cocktail of protease inhibitor (Roche Diagnostics)). The cells are homogenized with Polytron for 1 min and sonicated on ice for 2×2 minutes at 80% intensity (Vibracell sonicator). The preparation is centrifuged 20 min at 500 g at 4° C., the pellet is discarded and the supernatant centrifuged 1 hour at 43,000 g at 4° C. (19,000 rpm). The pellet is resuspended in 12.5 ml Lysis buffer+12.5 ml Sucrose 20% and homogenized using a Polytron for 1-2 min. The protein concentration is determined by the Bradford method and aliquots are stored at −80° C. until use. For binding studies 60 mg Yttrium silicate SPA beads (Amersham) are mixed with an aliquot of membrane in binding buffer (50 mM Tris, 120 mM NaCl, 5 mM KCl, 2 mM CaCl2, 10 mM MgCl2) for 15 minutes with mixing. 50 ul of bead/membrane mixture is then added to each well of a 96 well plate, followed by 50 ul of 4 nM 3H-Vasopressin (American Radiolabeled Chemicals). For total binding measurement 100 ul of binding buffer are added to the respective wells, for non-specific binding 100 ul of […] cold vasopressin and for compound testing 100 ul of a serial dilution of each compound in 2% DMSO. The plate is incubated 1 h at room temperature, centrifuged 1 min at 1000 g and counted on a Packard Top-Count. Non-specific binding counts are subtracted from each well and data is normalized to the maximum specific binding set at 100%. To calculate an IC 50 the curve is fitted using a non-linear regression model (XLfit), and the Ki is calculated using the Cheng-Prussoff equation.

T1 sequence (P37288 whole entry): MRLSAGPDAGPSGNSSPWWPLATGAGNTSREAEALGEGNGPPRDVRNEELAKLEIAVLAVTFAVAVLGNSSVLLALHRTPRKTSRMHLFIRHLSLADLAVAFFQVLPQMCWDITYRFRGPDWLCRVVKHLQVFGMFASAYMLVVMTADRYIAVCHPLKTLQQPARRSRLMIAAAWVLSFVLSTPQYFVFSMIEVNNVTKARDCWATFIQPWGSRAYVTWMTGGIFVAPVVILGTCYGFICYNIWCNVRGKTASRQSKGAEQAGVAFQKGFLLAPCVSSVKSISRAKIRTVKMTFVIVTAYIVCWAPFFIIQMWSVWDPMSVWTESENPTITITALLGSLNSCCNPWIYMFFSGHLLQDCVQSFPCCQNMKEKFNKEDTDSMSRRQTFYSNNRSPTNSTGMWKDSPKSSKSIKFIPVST

Ki [nM] | Molecule
6.8 | Cc1c(C(=O)N2CCC3(C=Cc4ccccc43)CC2)c2ccccc2n1Cc1ccccc1 [Example 1, 1′-[(1-benzyl-2-methyl-1H-indol-3-yl)carbonyl]spiro[indene-1,4′-piperidine]]
8.2 | O=C(c1c[nH]c2cc(Cl)ccc12)N1CCC2(C=Cc3ccccc32)CC1 [Example 5, 1′-[(6-chloro-1H-indol-3-yl)carbonyl]spiro[indene-1,4′-piperidine]]
19.7 | O=C(c1c[nH]c2cc(Cl)ccc12)N1CCC2(CCc3ccccc32)CC1 [Example 6, 1′-[(6-chloro-1H-indol-3-yl)carbonyl]-2,3-dihydrospiro[indene-1,4′-piperidine]]
27.2 | O=C(c1c[nH]c2cc(Cl)ccc12)N1CCC2(CC1)CNc1ccccc12 [Example 8, 1′-[(6-chloro-1H-indol-3-yl)carbonyl]-1,2-dihydrospiro[indole-3,4′-piperidine]]
11.2 | Cc1c(C(=O)N2CCC3(CC2)OC(=O)c2c(F)cccc23)c2ccccc2n1Cc1ccccc1 [Example 11, 1′-[(1-benzyl-2-methyl-1H-indol-3-yl)carbonyl]-4-fluoro-3H-spiro[2-benzofuran-1,4′-piperidin]-3-one]
4.4 | O=C1OC2(CCN(C(=O)c3c[nH]c4cc(Cl)ccc34)CC2)c2ccccc21 [Example 16, 1′-[(6-chloro-1H-indol-3-yl)carbonyl]-3H-spiro[2-benzofuran-1,4′-piperidin]-3-one]
6.8 | O=C1OC2(CCN(C(=O)c3c[nH]c4cc(Cl)ccc34)CC2)c2ccc(F)cc21 [Example 19, 1′-[(6-chloro-1H-indol-3-yl)carbonyl]-5-fluoro-3H-spiro[2-benzofuran-1,4′-piperidin]-3-one]
15.8 | O=C1OC2(CCN(C(=O)c3c[nH]c4cc(Cl)ccc34)CC2)c2cc(Cl)ccc21 [Example 20, 6-chloro-1′-[(6-chloro-1H-indol-3-yl)carbonyl]-3H-spiro[2-benzofuran-1,4′-piperidin]-3-one]
33.1 | CC1CCN(C(=O)c2[nH]c3cc(Cl)ccc3c2C(=O)N2CCC3(CC2)OC(=O)c2cc(F)ccc23)CC1 [Example 24, 1′-({6-chloro-2-[(4-methylpiperidin-1-yl)carbonyl]-1H-indol-3-yl}carbonyl)-5-fluoro-3H-spiro[2-benzofuran-1,4′-piperidin]-3-one]
20.4 | NC(=O)c1[nH]c2cc(Cl)ccc2c1C(=O)N1CCC2(CC1)OC(=O)c1cc(F)ccc12 [Example 25, 6-chloro-3-[(5-fluoro-3-oxo-1′H,3H-spiro[2-benzofuran-1,4′-piperidin]-1′-yl)carbonyl]-1H-indole-2-carboxamide]
39.4 | CN(C)CCNC(=O)c1[nH]c2cc(Cl)ccc2c1C(=O)N1CCC2(CC1)OC(=O)c1cc(F)ccc12 [Example 26, 6-chloro-N-[2-(dimethylamino)ethyl]-3-[(5-fluoro-3-oxo-1′H,3H-spiro[2-benzofuran-1,4′-piperidin]-1′-yl)carbonyl]-1H-indole-2-carboxamide]
10.1 | CN(C)C(=O)c1[nH]c2cc(Cl)ccc2c1C(=O)N1CCC2(CC1)OC(=O)c1cc(F)ccc12 [Example 29, 6-chloro-3-[(5-fluoro-3-oxo-1′H,3H-spiro[2-benzofuran-1,4′-piperidin]-1′-yl)carbonyl]-N,N-dimethyl-1H-indole-2-carboxamide]
5.8 | CN(CCNC(=O)c1[nH]c2cc(Cl)ccc2c1C(=O)N1CCC2(CC1)OC(=O)c1cc(F)ccc12)C(=O)OC(C)(C)C [Example 30, tert-butyl {2-[({6-chloro-3-[(5-fluoro-3-oxo-1′H,3H-spiro[2-benzofuran-1,4′-piperidin]-1′-yl)carbonyl]-1H-indol-2-yl}carbonyl)amino]ethyl}methylcarbamate]
12.2 | CCN(CC)C(=O)c1[nH]c2cc(Cl)ccc2c1C(=O)N1CCC2(CC1)OC(=O)c1cc(F)ccc12 [Example 31, 6-chloro-N,N-diethyl-3-[(5-fluoro-3-oxo-1′H,3H-spiro[2-benzofuran-1,4′-piperidin]-1′-yl)carbonyl]-1H-indole-2-carboxamide]
27.5 | CN1CCN(C(=O)c2[nH]c3cc(Cl)ccc3c2C(=O)N2CCC3(CC2)OC(=O)c2cc(F)ccc23)CC1 [Example 32, 1′-({6-chloro-2-[(4-methylpiperazin-1-yl)carbonyl]-1H-indol-3-yl}carbonyl)-5-fluoro-3H-spiro[2-benzofuran-1,4′-piperidin]-3-one]
10.8 | O=C1OC2(CCN(C(=O)c3c(C(=O)N4CCCCC4)[nH]c4cc(Cl)ccc34)CC2)c2ccc(F)cc21 [Example 33, 1′-{[6-chloro-2-(piperidin-1-ylcarbonyl)-1H-indol-3-yl]carbonyl}-5-fluoro-3H-spiro[2-benzofuran-1,4′-piperidin]-3-one]
2.1 | Cc1c(C(=O)N2CCC3(CC2)OC(=O)c2cc4c(cc23)OCO4)c2ccccc2n1Cc1ccccc1 [Example 34, 1′-[(1-benzyl-2-methyl-1H-indol-3-yl)carbonyl]-7H-spiro[furo[3,4-f][1,3]benzodioxole-5,4′-piperidin]-7-one]
2.5 | N#CCCn1cc(C(=O)N2CCC3(CC2)OC(=O)c2ccccc23)c2ccc(Cl)cc21 [Example 35, 3-{6-chloro-3-[(3-oxo-1′H,3H-spiro[2-benzofuran-1,4′-piperidin]-1′-yl)carbonyl]-1H-indol-1-yl}propanenitrile]
6.3 | N#CCn1cc(C(=O)N2CCC3(CC2)OC(=O)c2ccccc23)c2ccc(Cl)cc21 [Example 37, {6-chloro-3-[(3-oxo-1′H,3H-spiro[2-benzofuran-1,4′-piperidin]-1′-yl)carbonyl]-1H-indol-1-yl}acetonitrile]

Molecule | Ki [nM]
1′-({6-Chloro-1-[(2S)-pyrrolidin-2-ylmethyl]-1H-indol-3-yl}carbonyl)-3H-spiro[2-benzofuran-1,4′-piperidine [Example 267] | 1.4
Cc1c(C(=O)N2C[C@H](C)C3(OC(=O)c4ccccc43)[C@@H](C)C2)c2ccccc2n1Cc1ccccc1 (racemic) [Example 15, (SS,RR)-1′-[(1-benzyl-2-methyl-1H-indol-3-yl)carbonyl]-3′,5′-dimethyl-3H-spiro[2-benzofuran-1,4′-piperidin]-3-one] | 14.8
Cc1c(C(=O)N2CCC3(CCc4ccccc43)CC2)c2ccccc2n1Cc1ccccc1 [Example 2, 1′-[(1-benzyl-2-methyl-1H-indol-3-yl)carbonyl]-2,3-dihydrospiro[indene-1,4′-piperidine]] | 16.2
O=C(c1cn(Cc2ccccc2)c2ccccc12)N1CCC2(C=Cc3ccccc32)CC1 [Example 3, 1′-[(1-benzyl-1H-indol-3-yl)carbonyl]spiro[indene-1,4′-piperidine]] | 10.1
Cc1c(C(=O)N2CCC3(CC2)CNc2ccccc23)c2ccccc2n1Cc1ccccc1 [Example 9, 1′-[(1-benzyl-2-methyl-1H-indol-3-yl)carbonyl]-1,2-dihydrospiro[indole-3,4′-piperidine]] | 9.7
Cc1c(C(=O)N2CCC3(CC2)OC(=O)c2ccc(Cl)cc23)c2ccccc2n1Cc1ccccc1 [Example 10, 1′-[(1-benzyl-2-methyl-1H-indol-3-yl)carbonyl]-6-chloro-3H-spiro[2-benzofuran-1,4′-piperidin]-3-one] | 12.7
COc1ccc2c(c1)C1(CCN(C(=O)c3c(C)n(Cc4ccccc4)c4ccccc34)CC1)OC2=O [Example 12, 1′-[(1-benzyl-2-methyl-1H-indol-3-yl)carbonyl]-6-methoxy-3H-spiro[2-benzofuran-1,4′-piperidin]-3-one] | 3.4
COc1ccc2c(c1)C(=O)OC21CCN(C(=O)c2c(C)n(Cc3ccccc3)c3ccccc23)CC1 [Example 13, 1′-[(1-benzyl-2-methyl-1H-indol-3-yl)carbonyl]-5-methoxy-3H-spiro[2-benzofuran-1,4′-piperidin]-3-one] | 9.5
Cc1c(C(=O)N2CCC3(CC2)OC(=O)c2cccc(Cl)c23)c2ccccc2n1Cc1ccccc1 [Example 14, 1′-[(1-benzyl-2-methyl-1H-indol-3-yl)carbonyl]-7-chloro-3H-spiro[2-benzofuran-1,4′-piperidin]-3-one] | 11.2
Cc1c(C(=O)N2CCC3(CC2)OC(=O)c2cc(F)ccc23)c2ccccc2n1Cc1ccccc1 [Example 23, 1′-[(1-benzyl-2-methyl-1H-indol-3-yl)carbonyl]-5-fluoro-3H-spiro[2-benzofuran-1,4′-piperidin]-3-one] | 11
Cc1c(C(=O)N2CCC3(CC2)OCc2ccccc23)c2ccccc2n1Cc1ccccc1 [Example 39, 1′-[(1-benzyl-2-methyl-1H-indol-3-yl)carbonyl]-3H-spiro[2-benzofuran-1,4′-piperidine]] | 1.8
